# Reference: patent US20070248705A1, “Agents for Activating the Transcription Factor Nrf2 and Foods Having Such Function” (KIRIN BEER KABUSHIKI KAISHA, priority 2004, published 2007)
# Tested on: Nrf2
# Assay: Nrf2 activation in ARE reporter assay system, RAW264.7
# Format: cell-based, mouse
# Details: RAW264.7, 5 μM, 24 hours
# Experimental: To construct the reporter plasmid pGL3-mARE3A, a double-stranded oligo DNA with 3 repeats of mouse NQO1-derived ARE (antioxidant response element) to which Nrf2 is believed to bind was constructed and inserted into the MluI-NheI site of the firefly luciferase reporter vector pGL3-promoter vector (available from Promega).
# The double-stranded oligo DNA containing AREs was prepared by chemically synthesizing two single-stranded oligo DNAs, 5 ′-[…] G-3′ (SEQ ID NO: 1) and 5′-[…]-3′(SEQ ID NO: 2), and annealing them. Further, DNA sequence analysis confirmed that the product obtained was the plasmid of interest. Next, a mouse macrophage cell line RAW264.7 (available from American Type Culture Collection) was seeded on a 12-well plate (4×10^5 cells/well), 0.8 ml of an RPMI1640 medium (Invitrogen) supplemented with 10% fetal bovine serum (HyClone) and penicillin-streptomycin (100 units/ml and 100 μg/ml, respectively; Sigma) was added, and the plate was incubated at 37° C. in an atmosphere of 5% CO2 overnight. […] The cells were broken using a Dual-Luciferase reporter assay system (Promega) and then firefly luciferase activity and renilla luciferase activity were measured using a luminometer (Luminous CT-9000D, Dia-Iatron). […]
compound,measurement,value
"CC(C)=CCC(=O)C1(O)C(O)=C(C(=O)CC(C)C)C(=O)C1CC=C(C)C (stereo not shown) [IH (F), isohumulone]",Nrf2 activation activity (relative luciferase activity),confirmed the activation
